Source: patent US9284335B2, “Substituted pyrido[3,2-e][1,2,4]triazolo[1,5-c]pyrimidines, pyrido[2,3-e][1,2,4]triazolo[1,5-c]pyrimidines and/or [1,2,4]triazolo[1,5-c]pteridines for treatment of central nervous system diseases and disorders” (DART NEUROSCIENCE (CAYMAN) LTD., priority 2012, dated 2016)

Tested on: NS1 cells
Assay: Neurite outgrowth (NOG) assay
Format: cell-based
Protocol: Neuroscreen 1 (NS1) Cells (Cellomics Inc.) were cultured on collagen type I coated 75 cm2 plastic flasks (Biocoat, Becton Dickinson) in a humidified incubator at 37° C. in 5% CO2. Cells were cultured in RPMI complete cell culture medium (Cambrex) supplemented with 10% heat-inactivated horse serum (Invitrogen), 5% heat-inactivated fetal bovine serum (Cellgro), and 2 mM L-glutamine (Cambrex). For expansion, the cells were trypsinized and split at 80% confluence. Cell culture media was changed every 2 to 3 days.
NS1 cells were harvested and counted using a Coulter counter (Becton Dickinson Coulter Z1). Cells were seeded in 96-well collagen I coated plates at a density of 2000 cells per well in volume of 200 μl. RPMI media was supplemented with 200 ng/ml nerve growth factor (NGF, Sigma). NS1 cells were incubated for 72 hours to allow differentiation to a neuronal phenotype. […]
Antibody-stained 96-well plates were stored at 4° C. in the dark until scanning. […] The neurite outgrowth assay is based on two channels to scanning: (1) Channel 1, which detects the Hoechst Dye and is used by the software to identify cells and for automated focusing; and (2) Channel 2, which detects the FITC fluorescence of the secondary antibody and is used by the software to calculate all data generated in reference to neurites. […]

COc1ccc(C2CNC(=O)C2)cc1OC1CCCC1 (centres unmarked) [Rolipram]
neurite length and branching / neurite outgrowth (in combination with forskolin): enhanced in dose-dependent manner | neurite length and branching / neurite outgrowth (without forskolin): not affected
